Values quoted from earlier work as cited in patent US12642292B2, “Multi-compartment oral pouched product” (NICOVENTURES TRADING LIMITED, priority 2021, dated 2026).

Columns and labels:
[1] = when isolated; converts via isomerization into trans-bixin
[2] = for solubility in water / aqueous environment: for CBD aqueous environment (e.g., saliva)

Structure (SMILES): COC(=O)/C=C/C(C)=C\C=C\C(C)=C\C=C\C=C(C)\C=C\C=C(C)\C=C\C(=O)O [bixin]
- chemical stability [1]: chemically unstable when isolated
- solubility in fats and alcohols ([2]; fats and alcohols): soluble in fats and alcohols
- solubility in water / aqueous environment [2]: insoluble in water

Structure (SMILES): C=C(C)[C@@H]1CCC(C)=C[C@H]1c1c(O)cc(CCCCC)cc1O [CBD, cannabidiol, reference compound]
- solubility in water / aqueous environment [2]: insoluble in an aqueous environment

Structure (SMILES): CC(/C=C/C=C(C)/C=C/C(=O)O)=C\C=C\C=C(C)\C=C\C=C(C)\C=C\C(=O)O (stereo in doubt) [norbixin, (2E,4E,6E,8E,10E,12E,14E,16E,18E)-4,8,13,17-tetramethylicosa-2,4,6,8,10,12,14,16,18-nonaenedioic acid]
- solubility in water / aqueous environment [2]: water soluble
